What was measured:
wild type 40S subunits = assay: 35S-Met/Cys pulse labeling of transfected N2a cells cultured with increasing concentrations of pactamycin (wild type ribosomes); format: cell-based, mouse; settings: 100 ng/ml pactamycin, could be further blocked at higher concentrations, SDS-PAGE of 35S-labeled lysates (FIG. 4d)
Source text: There were no reports of functionally tested examples of nucleotide changes conferring antibiotic resistance in higher eukaryotes. Pactamycin affects translation by binding to rRNA in the E-site of the small subunit and disrupting the positioning of mRNA at this site. The result of pactamycin-binding is a block in […] and the accumulation of di-peptides resulting from aborted initiation events. Analyzed were the effects of mutations in mouse 18S rRNA at four residues, G963, A964, C1065 and C1066 in SEQ ID NO:23. These residues correspond, respectively, to positions 693, 694, 795 and 796 at the E-site of E. coli 16S rRNA which were identified from crystal structures. Unless otherwise noted, the numbering of these sites in mammalian 18S rRNA sequences is based on that in E. coli 16S rRNA. […] Pactamycin resistance was assessed by 35S-Met/Cys pulse labeling of transfected cells in the presence of 100 ng/ml antibiotic. […] Mutated ribosomes were also analyzed for their ability to translate a luciferase mRNA in cells transfected with a luciferase reporter plasmid (pGL4.13), and cultured in the presence of 100 ng/ml pactamycin (FIG. 4b).
The levels of synthetic 18S rRNA for constructs with each mutation were monitored using the hybridization tag and found no substantial differences that could account for the difference in translation between G693A and the other mutations (FIG. 4c). […]

[1] = system: mutated subunits (G693A 18S rRNA); assay: 35S-Met/Cys pulse labeling of transfected N2a cells cultured with increasing concentrations of pactamycin (G693A mutated ribosomes); format: cell-based, mouse; settings: even at the highest concentration tested of 6,400 ng/ml pactamycin; N2a cells (FIG. 4d)

CC(=O)c1cccc(N[C@H]2[C@H](N)[C@@](NC(=O)N(C)C)([C@H](C)O)[C@@](C)(O)[C@@]2(O)COC(=O)c2c(C)cccc2O)c1 [pactamycin]
translation from wild type 40S subunits (wild type 40S subunits): substantially blocked
translation from the mutated subunits [1]: unaffected

— patent publication US9359616B2, “Ribosomal polynucleotides and related expression systems” (The Scripps Research Institute, priority 2012, dated 2016)
